From patent US5374720A, “2-(substituted pyrrolidinylthio)carbapenem derivatives” (Banyu Pharmaceutical Co., Ltd., priority 1990, dated 1994)
In brackets after ≈: the same amount, converted by molar mass. Read-outs that look alike come from different tables or passages of the source.

Key:
P. aeruginosa AKR17 = test: in vitro antibacterial activity, agar plate dilution method (MIC); format: cell-based; conditions: for MIC: Pseudomonas aeruginosa, AKR17, 16 h, read-out: Minimum Inhibitory Concentration (MIC)
Procedure: (§1) One platinum loopful of each test microorganism incubated overnight in Mueller Hinton broth, was inoculated to Mueller Hinton agar (inoculum size: 10^6 CFU/ml). Such culture media contained antibacterial agents in various concentrations. After incubation at 37° C. for 16 hours, the minimum inhibitory concentrations (MIC: μg/ml) were measured.

P. aeruginosa MB5000 = test: as above; format: cell-based; conditions: for MIC: Pseudomonas aeruginosa, MB5000, 16 h, read-out: Minimum Inhibitory Concentration (MIC)
Procedure: as §1

P. aeruginosa MB5002 = test: as above; format: cell-based; conditions: for MIC: Pseudomonas aeruginosa, MB5002, 16 h, read-out: Minimum Inhibitory Concentration (MIC)
Procedure: as §1

Meth-R S. aureus = test: disc diffusion test, relative antibacterial potency to thienamycin; format: cell-based; conditions: ratio to thienamycin (=1.0), larger = higher activity
Procedure: (§2) The antibacterial activities of the compounds of the present invention described in the Examples, as representative examples of the compound of the present invention, were measured by a disc diffusion test by the method of Bauer et al. (Amer. J. Clin. Pathol., vol. 45, p. 493 (1966)). Thienamycin or imipenem was used as the internal standard.
(§3) MIC of each test compound was calculated from the diameter of the inhibition ring formed by the disc containing the test compound by using the calculation formula reported by Humphrey and Lightbown (J. Gen. Microbiol., vol. 7, p. 129 (1952)). For each microorganism, a geometrical average of MIC was obtained, and the activity ratio to thienamycin was calculated.
(§4) The antibacterial activities are represented by the ratio to thienamycin (=1.0), whereby the larger the numerical value, the higher the activities.

THM-R P. aeruginosa = test: as above; format: cell-based; conditions: ratio to thienamycin (=1.0), larger = higher activity
Procedure: as §2, §3, §4

DHP-I = DHP-I susceptibility (method by Kropp et al.); format: in vitro ADME
Source text: The DHP-I susceptibility was quantitatively analyzed by the method by Kropp et al., Antimicrob. Agents Chemother., vol. 22, p. 62-70 (1982), whereby the smaller the numerical value representing the ratio to imipenem (=1.0), the higher the stability. The antibacterial potency and the DHP-I susceptibility of the compounds of the present invention were compared with imipenem and meropenem.

[1] = system: gram positive bacteria and gram negative bacteria; conditions: background; cited from earlier work
[2] = background, cited from earlier work
β-lactamase = conditions: background; cited from earlier work
[3] = due to the decomposition products; cited from earlier work
[4] = system: DHP-I in the human kidney; conditions: background; cited from earlier work
[5] = system: highly methicillin resistant Staphylococcus aureus which is resistant to imipenem and imipenem resistant Pseudomonas aeruqinosa; conditions: background; cited from earlier work
[6] = system: highly methicillin resistant Staphylococcus aureus; conditions: background; cited from earlier work
[7] = system: renal dehydropeptidase I (DHP-I); conditions: background; cited from earlier work
[8] = background; cited from earlier work
[9] = P. aeruginosa AKR17 (lactamase producing microorganism), Mueller Hinton agar, 10^6 CFU/ml, 37° C., 16 hours
[10] = P. aeruginosa MB5000, Mueller Hinton agar, 10^6 CFU/ml, 37° C., 16 hours
[11] = P. aeruginosa MB5002, Mueller Hinton agar, 10^6 CFU/ml, 37° C., 16 hours
[12] = ratio to imipenem (=1.0), smaller = higher stability

Row | SMILES | MIC (P. aeruginosa AKR17; [9]) [µg/mL] | MIC (P. aeruginosa MB5000; [10]) [µg/mL] | MIC (P. aeruginosa MB5002; [11]) [µg/mL] | DHP-I susceptibility (DHP-I; [12]) | Relative antibacterial potency to thienamycin (Meth-R S. aureus) | Relative antibacterial potency to thienamycin (THM-R P. aeruginosa) | further results
1 | C[C@@H](O)[C@H]1C(=O)N2C(C(=O)O)=C(S[C@@H]3CN[C@H](C4CCNC4)C3)[C@H](C)[C@H]12 (single isomer, unassigned) [Example 11 Diastereomer A] | 0.78 (≈ 2.04 µM) | 0.1 (≈ 0.262 µM) | 0.78 (≈ 2.04 µM) | < 0.05 | 15.2 | 12.7 | –
2 | C[C@@H](O)[C@H]1C(=O)N2C(C(=O)O)=C(S[C@@H]3CN[C@H](C4CCNC4)C3)[C@H](C)[C@H]12 (single isomer, unassigned) [Example 11 Diastereomer B] | – | – | – | < 0.05 | 12.3 | 11.5 | Minimum Inhibitory Concentration (MIC) (P. aeruginosa AKR17; [9]): 1.56 µg/mL; Minimum Inhibitory Concentration (MIC) (P. aeruginosa MB5000; [10]): 0.2 µg/mL; Minimum Inhibitory Concentration (MIC) (P. aeruginosa MB5002; [11]): 1.56 µg/mL
3 | C[C@@H](O)[C@H]1C(=O)N2C(C(=O)O)=C(S[C@@H]3CN[C@H](C4CCN(C)C4)C3)[C@H](C)[C@H]12 (single isomer, unassigned) [Example 12 Diastereomer A] | 1.56 (≈ 3.94 µM) | – | 1.56 (≈ 3.94 µM) | – | – | – | –
4 | C[C@@H](O)[C@H]1C(=O)N2C(C(=O)[O-])=C(S[C@@H]3CN[C@H](C4CC[N+](C)(C)C4)C3)[C@H](C)[C@H]12 (single isomer, unassigned) [Example 13 Diastereomer A] | 1.56 (≈ 3.81 µM) | 0.2 (≈ 0.488 µM) | 0.78 (≈ 1.9 µM) | – | – | – | –
5 | C[C@@H](O)[C@H]1C(=O)N2C(C(=O)[O-])=C(S[C@@H]3CN[C@H](C4CC[N+](C)(C)C4)C3)[C@H](C)[C@H]12 (single isomer, unassigned) [Example 13] | – | – | – | < 0.05 | – | 11.5 | –
6 | C[C@@H](O)[C@H]1C(=O)N2C(C(=O)O)=C(S[C@@H]3CN[C@H](CC4CN[C@H](C(N)=O)C4)C3)[C@H](C)[C@H]12 (stereo partly drawn) [Example 32, (1R, 5S,6S)-2-[(2R,4S)-2-[(2S)-2-carbamoylpyrrolidin-4-ylmethyl]pyrrolidin-4-ylthio]-6-[(R)-1-hydroxyethyl]-1-methyl-1-carbapen-2-em-3-carboxylic acid] | – | – | – | < 0.05 | – | 19.5 | –
7 | C[C@@H](O)[C@H]1C(=O)N2C(C(=O)O)=C(SCCN=CN)C[C@H]12 [Imipenem, (5R,6S,8R)-3-[[2-(formimidoylamino)ethyl]thio]-6-(1-hydroxyethyl)-7-oxo-1-azabicyclo[3.2.0]hept-2-en-2-carboxylic acid monohydrate, reference compound] | – | – | – | 1.0 | 2.57 | 2.0 | MIC (P. aeruginosa AKR17): 6.25 µg/mL; MIC (P. aeruginosa MB5000): 1.56 µg/mL; MIC (P. aeruginosa MB5002): 3.13 µg/mL; antibacterial activities [1]: equal or higher level than thienamycin against various types of bacteria; stability in the solid form or in an aqueous solution ([2]; compared with thienamycin): remarkably improved over thienamycin; β-lactamase resistance (β-lactamase): has β-lactamase resistance; toxicity against the kidney [3]: presents toxicity against the kidney due to the decomposition products; decomposition by DHP-I in the human kidney [4]: likely to be decomposed by DHP-I in the human kidney; treating effects against resistant bacteria [5]: does not show adequate treating effects against these resistant bacteria
8 | C[C@@H](O)[C@H]1C(=O)N2C(C(=O)O)=C(SCCN)C[C@H]12 [Thienamycin, thienamycin] | – | – | – | – | – | – | antibacterial activities [1]: strong antibacterial activities over a wide range against gram positive bacteria and gram negative bacteria; decomposition by / stability against DHP-I [7]: likely to be decomposed by a certain enzyme in vivo such as renal dehydropeptidase I; chemical stability [2]: chemically unstable; recovery rate in the urine [8]: low; decomposition by DHP-I in the human kidney [4]: likely to be decomposed by DHP-I in the human kidney

Now from value to compound, other results behind:

Row | MIC (P. aeruginosa AKR17; [9]) [µg/mL] | MIC (P. aeruginosa MB5000; [10]) [µg/mL] | MIC (P. aeruginosa MB5002; [11]) [µg/mL] | DHP-I susceptibility (DHP-I; [12]) | SMILES | Relative antibacterial potency to thienamycin (Meth-R S. aureus) | Relative antibacterial potency to thienamycin (THM-R P. aeruginosa) | further results
9 | – | – | – | 0.07 | C[C@@H](O)[C@H]1C(=O)N2C(C(=O)O)=C(S[C@@H]3CN[C@H](CC4CN[C@H](C(=O)N(C)C)C4)C3)[C@H](C)[C@H]12 (stereo partly drawn) [Example 34, (1R,5S,6S)-6-[(R)-1-hydroxyethyl]-1-methyl-2-[(2R,4S)-2-[(2S)-2-(dimethylcarbamoyl)pyrrolidin-4-ylmethyl]pyrrolidin-4-ylthio]-1-carbapen-2-em-3-carboxylic acid] | 22.7 | 21.6 | –
10 | 1.56 (≈ 3.94 µM) | 0.1 (≈ 0.253 µM) | 0.39 (≈ 0.986 µM) | – | C[C@@H](O)[C@H]1C(=O)N2C(C(=O)O)=C(S[C@@H]3CN[C@H](C4CCNCC4)C3)[C@H](C)[C@H]12 [Example 43, (1R,5S,6S)-6-[(R)-1-hydroxyethyl]-1-methyl-2-[(2S,4S)-2-(piperidin-4-yl)pyrrolidin-4-ylthio]-1-carbapen-2-em-3-carboxylic acid] | – | – | –
11 | 1.56 (≈ 3.81 µM) | 0.2 (≈ 0.488 µM) | 0.78 (≈ 1.9 µM) | 0.10 | C[C@@H](O)[C@H]1C(=O)N2C(C(=O)O)=C(S[C@@H]3CN[C@H](C4CCN(C)CC4)C3)[C@H](C)[C@H]12 [Example 49] | 13.6 | 13.8 | –
12 | 3.13 (≈ 8.16 µM) | 0.39 (≈ 1.02 µM) | 6.25 (≈ 16.3 µM) | – | C[C@@H](O)[C@H]1C(=O)N2C(C(=O)O)=C(S[C@@H]3CN[C@H](C(=O)N(C)C)C3)[C@H](C)[C@H]12 [Meropenem, (4R,5S,6S,8R,2'S,4'S)-6-(1-hydroxyethyl)-4-methyl-3-[2-(N,N-dimethylaminocarbonyl)-pyrrolidin-4-ylthio]-7-oxo-1-azabicyclo[3.2.0]hept-2-en-2-carboxylic acid, reference compound] | 3.22 | 6.9 | DHP-I susceptibility (DHP-I): 0.12; antibacterial activities against highly methicillin resistant Staphylococcus aureus [6]: not adequate; decomposition by / stability against DHP-I [7]: substantially improved
